Experiments:
EBC-1 shMet-4.5 tumors = experiment: Combination efficacy of erlotinib with c-met knockdown (Dox) in the EBC-1 shMet-4.5 NSCLC xenograft model; assay type: in vivo, nude mice (nu/nu); conditions: EBC-1 shMet-4.5 xenograft
Description: Test material. Erlotinib (Tarceva™) was provided by OSI Pharmaceuticals to the Formulations Department at Genentech and was weighed out along with a sufficient amount of vehicle (methylcellulose tween (MCT)). Materials were stored in a refrigerator set to maintain a temperature range of 4° C. to 8° C. Anti-c-met monovalent monoclonal antibody MetMAb (rhuOA5D5v2) (WO2007/063816) was provided by the Antibody Engineering Department at Genentech, Inc., in a clear liquid form. The EBC-1 cell line was obtained from Japanese Collection of Research Bioresources (JCRB). Species. Forty nude mice (nu/nu) were obtained from Charles River Laboratories (CRL) and were acclimatized for at least one week prior to being put on study. Animals were housed in ventilated caging systems in rooms with filters supplying High-Efficiency Particulate Air (HEPA). Only animals that appeared to be healthy and were free of obvious abnormalities were used for the study. Study design. EBC-1 cells were cultured in growth media that consisted of RPMI 1640 media (Invitrogen), 2 mM L-glutamine, and 10% fetal bovine serum. To prepare cells for inoculation into mice, cells were trypsinized, washed with ten milliliters of sterile 1× phosphate buffered saline (PBS). A subset of cells was counted by trypan blue exclusion and the remainder of cells was resuspended in 100 μl of sterile 1× PBS to a concentration of 5×10^7 cells per milliliter. Mice were inoculated subcutaneously in the right sub-scapular region with 5×10^6 EBC-1 cells. […] Mice in Group 1 (control group) were treated with 100 μL vehicle control, methylcellulose tween (MCT), every day (QD) via oral gavage (PO) and were switched to drinking water containing 5% sucrose. […] Dox and sucrose water was changed every 2-3 days. Erlotinib and MCT were dosed for 14 days, stopped for 6 days and then resumed for the remainder of the study (20 days). […] All studies and handling of mice complied with the Institutional Animal Care and Use Committee (IACUC) guidelines. [table] Tumor and Body Weight Measurement. […] Fowler Company, Inc.; Newton, Mass.). The following formula was used with Excel v11.2 (Microsoft Corporation; Redmond, Wash.) to calculate tumor volume: […] Efficacy Data Analysis. Tumor inhibition was plotted using KaleidaGraph 3.6 (Synergy Software; Reading, Pa.). Percent growth inhibition (% Inh) at Day 17 was calculated as follows: […] Tumor incidence (TI) was determined by the number of measurable tumors in each group at Day 17. […] Mean tumor volume and standard error of the mean (SEM) were calculated using JMP software, version 5.1.2 (SAS Institute; Cary, N.C.). Data analysis and generation of p-values using either Student's t-test or the Dunnett's t-test was also done using JMP software, version 5.1.2. […] Mice were then grouped into four treatment arms; […] Vehicles, Group 2: Doxycycline (Dox), Group 3: erlotinib (100 mg/kg), and Group 4: erlotinib+Dox (See Table 6).

[1] = target: c-met (as expressed in NCI-H596 cells) (human) (UniProt P08581); experiment: cell-based or functional assay
[2] = 10 mice per group, any day during the study

| Compound | number of complete responses (CR; tumor regression of 100%) (EBC-1 shMet-4.5 tumors; [2]) | number of partial responses (PR; tumor regression >50% but <100% of starting tumor volume) (EBC-1 shMet-4.5 tumors; [2]) | reduction in tumor growth compared to the vehicle control (tumor inhibition) (EBC-1 shMet-4.5 tumors; nude mice, day 19, erlotinib 100 mg/kg PO QD, Dox in drinking water) | pMet/total Met in NCI-H596 xenograft tumors, percent of vehicle control (immunoprecipitation and immunoblot, Li-Cor quantification) (% of vehicle control) [1] |
| --- | --- | --- | --- | --- |
| C[C@H]1c2cccc(O)c2C(=O)C2=C(O)[C@]3(O)C(=O)C(C(N)=O)=C(O)[C@@H](N(C)C)[C@@H]3[C@@H](O)[C@@H]21 [Dox, doxycycline] | 1 | 2 | 38% | – |
| Anti-c-met monovalent monoclonal antibody MetMAb (rhuOA5D5v2) | – | – | – | 12 |

Source: patent US20160303127A1, “COMBINATION THERAPY WITH C-MET AND EGFR ANTAGONISTS” (Genentech, Inc., priority 2008, published 2016)
